Legend:
COLO 205 [1] = assay: Antitumor activity against human COLO 205 cells xenografted in athymic nude mouse model assessed as tumor growth inhibition at 15 mg/kg, ip administered once daily in presence of gemcitabine (Gemcitabine alone = 40%); format: functional; settings: read-out: TGI
COLO 205 [2] = assay: Antiproliferative activity against human COLO 205 cells deficit of p53 expression assessed as inhibition of cell growth measured after 96 hrs by MTT assay; format: functional, cell-based; settings: COLO 205, 96 h
COLO 205 [3] = assay: Antitumor activity against human COLO 205 cells xenografted in athymic nude mouse model assessed as tumor growth delay by measuring test to control tumor ratio at 24 mg/kg, ip administered twice daily in presence of gemcitabine (Gemcitabine alone= 8%); format: functional
COLO 205 [4] = assay: Antitumor activity against human COLO 205 cells xenografted in athymic nude mouse model assessed as potentiated tumor growth inhibition at 7.5 mg/kg, ip administered twice daily in presence of gemcitabine relative to control; format: functional; settings: read-out: TGI
HT-29 [5] = assay: Potentiation factor, ratio of IC50 for human HT-29 cells to IC50 for human HT-29 cells in presence of SN-38; format: functional
COLO 205 [6] = assay: Antitumor activity against human COLO 205 cells xenografted in athymic nude mouse model assessed as gross log cell kill at 4 mg/kg, ip administered once daily in presence of gemcitabine (Gemcitabine alone = 0.5%); format: functional
COLO 205 [7] = assay: Antitumor activity against human COLO 205 cells xenografted in athymic nude mouse model assessed as tumor growth delay by measuring test to control tumor ratio at 12 mg/kg, ip administered once daily in presence of gemcitabine (Gemcitabine alone= 8%); format: functional
COLO 205 [8] = assay: Antitumor activity against human COLO 205 cells xenografted in athymic nude mouse model assessed as potentiated tumor growth inhibition at 4 mg/kg, ip administered twice daily in presence of gemcitabine relative to control; format: functional; settings: read-out: TGI
COLO 205 [9] = assay: Antitumor activity against human COLO 205 cells xenografted in athymic nude mouse model assessed as potentiated tumor growth inhibition at 15 mg/kg, ip administered twice daily in presence of gemcitabine relative to control; format: functional; settings: read-out: TGI
HT-29 [10] = assay: Induction of apoptosis in gemcitabine induced human HT-29 cells assessed as apoptotic cell death measured after 24 hrs by PI staining based flow cytometry analysis (reference value: 0.7%); format: functional
COLO 205 [11] = assay: Antitumor activity against human COLO 205 cells xenografted in athymic nude mouse model assessed as tumor growth inhibition at 7.5 mg/kg, ip administered once daily in presence of gemcitabine (Gemcitabine alone = 40%); format: functional; settings: read-out: TGI
MDA-MB-231 = assay: Potentiation factor, ratio of IC50 for human MDA-MB-231 cells to IC50 for human MDA-MB-231 cells in presence of gemcitabine; format: functional
COLO 205 [12] = assay: Potentiation factor, ratio of IC50 for human COLO 205 cells to IC50 for human COLO 205 cells in presence of carboplatin; format: functional
COLO 205 [13] = assay: In vivo inhibition of Chk1 in athymic nude mouse xenografted with gemcitabine treated human COLO 205 cells assessed as increase in caspase-3 level by immunohistochemical analysis; format: functional, cell-based; settings: dose 15-30 mg/kg
HT-29 [14] = assay: Cytotoxicity in human HT-29 cells assessed as cell survival at 180 nM measured after 4 to 48 hrs by coulter counter method relative to control; format: functional; settings: time 4-48 hrs, read-out: Activity
PC-3 = assay: Antiproliferative activity against human PC-3 cells deficit of p53 expression assessed as inhibition of cell growth measured after 96 hrs by MTT assay; format: functional, cell-based; settings: PC-3, 96 h
COLO 205 [15] = assay: Antitumor activity against human COLO 205 cells xenografted in athymic nude mouse model assessed as tumor growth inhibition at 20 mg/kg, ip administered once daily in presence of gemcitabine (Gemcitabine alone= 58%); format: functional; settings: read-out: TGI
COLO 205 [16] = assay: Antitumor activity against human COLO 205 cells xenografted in athymic nude mouse model assessed as tumor growth inhibition at 7.5 mg/kg, ip administered twice daily in presence of gemcitabine (Gemcitabine alone = 40%); format: functional; settings: read-out: TGI
HT-29 [17] = assay: Inhibition of camptothecin induced DNA damage in human HT-29 cells assessed as increase in mitotic index by measuring histone H3 phosphorylation at S10 residue at 0.001 to 1 uM measured after 16 hrs presence of nocodazole by dot blot assay; format: functional, cell-based; settings: HT-29, 16 h
COLO 205 [18] = assay: Antitumor activity against human COLO 205 cells xenografted in athymic nude mouse model assessed as potentiated tumor growth inhibition at 40 mg/kg, ip administered twice daily in presence of gemcitabine relative to control; format: functional; settings: read-out: TGI
COLO 205 [19] = assay: Antitumor activity against human COLO 205 cells xenografted in athymic nude mouse model assessed as tumor growth inhibition at 12 mg/kg, ip administered once daily in presence of gemcitabine (Gemcitabine alone= 58%); format: functional; settings: read-out: TGI
[20] = Toxicity in athymic nude mouse assessed as effect on body weight at 4 to 20 mg/kg, ip administered twice daily in presence of gemcitabine; format: organism-based; settings: in vivo, dose 4-20 mg/kg
COLO 205 [21] = assay: Antitumor activity against human COLO 205 cells xenografted in athymic nude mouse model assessed as gross log cell kill at 15 mg/kg, ip administered once daily in presence of gemcitabine (Gemcitabine alone = 0.27%); format: functional
HeLa = assay: Inhibition of camptothecin induced DNA damage in human HeLa cells assessed as increase in mitotic index by measuring histone H3 phosphorylation at S10 residue at 0.001 to 1 uM measured after 16 hrs presence of nocodazole by dot blot assay; format: functional, cell-based
HT-29 [22] = assay: Potentiation of camptothecin induced cytotoxicity in human HT-29 cells assessed as cell survival at 360 nM measured after 4 to 48 hrs by coulter counter method relative to camptothecin alone; format: functional; settings: time 4-48 hrs, read-out: Activity
COLO 205 [23] = assay: Antitumor activity against human COLO 205 cells xenografted in athymic nude mouse model assessed as potentiated tumor growth inhibition at 12 mg/kg, ip administered once daily in presence of gemcitabine relative to control; format: functional; settings: read-out: TGI
COLO 205 [24] = assay: Antitumor activity against human COLO 205 cells xenografted in athymic nude mouse model assessed as tumor growth delay by measuring test to control tumor ratio at 7.5 mg/kg, ip administered once daily in presence of gemcitabine (Gemcitabine alone = 3%); format: functional
[25] = Clearance in Sprague-Dawley rat plasma at 4 mg/kg, iv administered as bolus dose by LCMS analysis; format: ADME, organism-based
HT-29 [26] = assay: Potentiation factor, ratio of IC50 for human HT-29 cells to IC50 for human HT-29 cells in presence of carboplatin; format: functional
[27] = molecular target: Vascular endothelial growth factor receptor 2 (Homo sapiens, UniProt P35968); assay: Binding affinity to VEGFR2 (unknown origin) assessed as inhibition constant
[28] = molecular target: Fibroblast growth factor receptor 3 (Homo sapiens, UniProt P22607); assay: Inhibition of FGFR3 (unknown origin)
COLO 205 [29] = assay: Antitumor activity against human COLO 205 cells xenografted in athymic nude mouse model assessed as tumor growth inhibition at 30 mg/kg, ip administered once daily in presence of gemcitabine (Gemcitabine alone = 40%); format: functional; settings: read-out: TGI
[30] = Volume of distribution at steady state in Sprague-Dawley rat at 4 mg/kg, iv administered as bolus dose by LCMS analysis; format: ADME, organism-based; settings: in vivo, read-out: Vdss
COLO 205 [31] = assay: Antitumor activity against human COLO 205 cells xenografted in athymic nude mouse model assessed as gross log cell kill at 15 mg/kg, ip administered twice daily in presence of gemcitabine (Gemcitabine alone = 0.27%); format: functional

Sequence of Fibroblast growth factor receptor 3 (P22607 whole entry): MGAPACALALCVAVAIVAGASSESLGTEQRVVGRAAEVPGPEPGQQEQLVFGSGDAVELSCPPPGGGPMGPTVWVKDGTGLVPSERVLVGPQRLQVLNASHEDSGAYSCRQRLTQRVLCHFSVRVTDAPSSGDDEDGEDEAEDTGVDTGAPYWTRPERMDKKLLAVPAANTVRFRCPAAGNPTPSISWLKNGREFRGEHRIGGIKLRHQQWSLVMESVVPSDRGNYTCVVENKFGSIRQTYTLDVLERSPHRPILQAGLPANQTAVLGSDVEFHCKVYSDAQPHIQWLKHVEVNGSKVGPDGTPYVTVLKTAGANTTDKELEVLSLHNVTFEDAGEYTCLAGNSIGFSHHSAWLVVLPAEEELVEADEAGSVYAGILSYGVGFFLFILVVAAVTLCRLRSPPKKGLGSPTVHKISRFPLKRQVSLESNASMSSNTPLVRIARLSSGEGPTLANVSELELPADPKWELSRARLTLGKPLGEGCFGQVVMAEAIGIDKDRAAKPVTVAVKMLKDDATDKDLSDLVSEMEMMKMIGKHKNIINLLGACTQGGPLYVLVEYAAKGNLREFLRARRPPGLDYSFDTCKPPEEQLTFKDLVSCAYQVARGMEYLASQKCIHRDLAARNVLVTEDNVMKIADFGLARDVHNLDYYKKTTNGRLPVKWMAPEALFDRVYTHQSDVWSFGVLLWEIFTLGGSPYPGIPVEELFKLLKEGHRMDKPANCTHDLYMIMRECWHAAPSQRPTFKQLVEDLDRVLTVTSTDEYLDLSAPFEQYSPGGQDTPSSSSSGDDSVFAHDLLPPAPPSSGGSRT
Sequence of Vascular endothelial growth factor receptor 2 (P35968 whole entry): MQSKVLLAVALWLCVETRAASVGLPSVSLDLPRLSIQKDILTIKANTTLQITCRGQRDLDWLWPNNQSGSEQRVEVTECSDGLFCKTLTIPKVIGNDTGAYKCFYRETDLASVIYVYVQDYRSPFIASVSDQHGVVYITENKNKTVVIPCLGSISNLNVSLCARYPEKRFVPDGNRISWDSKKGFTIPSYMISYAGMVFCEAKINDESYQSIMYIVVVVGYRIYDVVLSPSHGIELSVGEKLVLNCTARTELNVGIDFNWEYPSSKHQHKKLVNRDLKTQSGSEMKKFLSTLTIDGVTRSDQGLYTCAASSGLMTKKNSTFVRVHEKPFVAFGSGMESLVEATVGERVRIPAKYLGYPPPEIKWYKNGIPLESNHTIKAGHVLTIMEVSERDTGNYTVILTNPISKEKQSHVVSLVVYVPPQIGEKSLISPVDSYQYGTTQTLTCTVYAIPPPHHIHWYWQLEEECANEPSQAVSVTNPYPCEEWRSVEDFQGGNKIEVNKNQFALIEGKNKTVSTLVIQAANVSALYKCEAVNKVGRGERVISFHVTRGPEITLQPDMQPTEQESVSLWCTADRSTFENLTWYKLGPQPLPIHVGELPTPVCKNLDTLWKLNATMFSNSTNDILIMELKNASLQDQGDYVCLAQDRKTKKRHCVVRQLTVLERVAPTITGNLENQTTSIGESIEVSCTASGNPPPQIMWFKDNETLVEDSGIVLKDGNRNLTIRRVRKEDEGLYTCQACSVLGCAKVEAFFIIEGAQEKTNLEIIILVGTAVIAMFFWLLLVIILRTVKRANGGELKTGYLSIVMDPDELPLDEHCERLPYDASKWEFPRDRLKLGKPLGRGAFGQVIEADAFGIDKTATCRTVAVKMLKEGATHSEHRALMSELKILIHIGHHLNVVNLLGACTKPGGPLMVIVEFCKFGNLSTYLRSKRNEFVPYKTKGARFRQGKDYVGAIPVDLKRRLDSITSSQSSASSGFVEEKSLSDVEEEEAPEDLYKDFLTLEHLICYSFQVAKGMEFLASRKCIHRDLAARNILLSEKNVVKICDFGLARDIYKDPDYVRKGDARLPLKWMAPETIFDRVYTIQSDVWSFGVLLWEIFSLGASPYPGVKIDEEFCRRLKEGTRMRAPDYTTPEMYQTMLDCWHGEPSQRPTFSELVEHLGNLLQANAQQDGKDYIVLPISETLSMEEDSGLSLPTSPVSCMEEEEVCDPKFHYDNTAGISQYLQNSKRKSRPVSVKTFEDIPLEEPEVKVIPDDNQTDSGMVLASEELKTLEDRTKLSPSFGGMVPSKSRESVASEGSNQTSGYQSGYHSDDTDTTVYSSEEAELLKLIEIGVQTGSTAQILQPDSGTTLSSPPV

Cn1cc(-c2[nH]c3cc(NC(=O)[C@H](N)C4CCCCC4)cc4c3c2C=NNC4=O)cn1
inhibition in vivo at 15 mg/kg (COLO 205 [1]): 67% | IC50 (COLO 205 [2]): 1.3 µM | T/C (COLO 205 [3]): 12 | inhibition in vivo at 7.5 mg/kg (COLO 205 [4]): 50% | PF50 (HT-29 [5]): 3.7 | LCK (COLO 205 [6]): 0.5 | T/C (COLO 205 [7]): 8.5 | inhibition in vivo at 4 mg/kg (COLO 205 [8]): 12% | inhibition in vivo at 15 mg/kg (COLO 205 [9]): 44% | Activity (HT-29 [10]): 5.2% | inhibition in vivo at 7.5 mg/kg (COLO 205 [11]): 54% | PF50 (MDA-MB-231): 3.6 | PF50 (COLO 205 [12]): 5.4 | inhibition (COLO 205 [13]): Dose-Dependent Effect | viability at 0.18 µM (HT-29 [14]): 97% | IC50 (PC-3): 1.6 µM | inhibition in vivo at 20 mg/kg (COLO 205 [15]): 76% | inhibition in vivo at 7.5 mg/kg (COLO 205 [16]): 70% | EC50 (HT-29 [17]): 0.042 µM | inhibition in vivo at 40 mg/kg (COLO 205 [18]): 75% | inhibition in vivo at 12 mg/kg (COLO 205 [19]): 68% | Activity [20]: Non-Toxic | LCK (COLO 205 [21]): 0.71 | EC50 (HeLa): 0.038 µM | viability at 0.36 µM (HT-29 [22]): 84% | inhibition in vivo at 12 mg/kg (COLO 205 [23]): 23% | T/C (COLO 205 [24]): 5.75 | clearance [25]: 11.8 mL/min/kg | PF50 (HT-29 [26]): 3 | Ki [27]: 0.016 µM | IC50 [28]: 0.047 µM | inhibition in vivo at 30 mg/kg (COLO 205 [29]): 64% | Vd [30]: 0.7 L/kg | LCK (COLO 205 [31]): 1.03

Source: ChEMBL document CHEMBL5705884, “Breaching the DNA damage checkpoint via PF-00477736, a novel small-molecule inhibitor of checkpoint kinase 1” (Mol Cancer Ther, 2008)
